In patent US6465618B1, “Mitogen activated protein kinase (MAPK) kinase” (Asahi Kasei Kabushikiki Kaisha, priority 1997, dated 2002):

Assays:
SEK1/MKK4 = test: Activation of SEK1/MKK4 by TNF-α in KB and U937 cells (immune complex kinase assay); format: cell-based; settings: KB cells 20 ng/ml, U937 cells 100 ng/ml human TNF-α; 5 to 180 minutes
Method: (§1) KB cells were cultured in Dulbecco's modified Eagles medium (DMEM) containing 10% bovine serum, and the cultured cells were stimulated with 20 ng/ml human TNF-α (manufactured and sold by BECTON DICKINSON AND COMPANY, USA, under the brand of Collaborative Biomedical Products). U937 cells were cultured in RPMI 1640 medium containing 10% fetal bovine serum, and the cultured cells were stimulated with 100 ng/ml human TNF-α. The cells were sampled from each cell culture 5, 15, 30, 60, 120 and 180 minutes after the start of the stimulation to thereby prepare cell extracts. The cell extracts were prepared as follows. The sampled cells were suspended in 0.7 M NaCl solution and washed once with ice-cold HEPES-buffered saline. […]
(§2) To 200 μl of the cell extract was added 3 μl of an antiserum (anti-MKK7 antiserum and anti-SEK1/MKK4 antiserum were separately used), and a reaction for preparing an immune complex was allowed to proceed while incubating at 4° C. for 1 hour. […] The phosphorylation of c-Jun was detected by autoradiography and used as an index for the activation of MKK7 or SEK1/MKK4 by TNF-α.

MKK7 = test: Activation of MKK7 by TNF-α in KB and U937 cells (immune complex kinase assay); format: cell-based; settings: KB cells 20 ng/ml, U937 cells 100 ng/ml human TNF-α; 5 to 180 minutes
Method: as §1, §2

TNF-α
activation of SEK1/MKK4 by TNF-α (phosphorylation of c-Jun as index) (SEK1/MKK4): did not activate
activation of MKK7 by TNF-α (phosphorylation of c-Jun as index) (MKK7): activated
